# Results taken from patent publication US20080280815A1, “Lowering Serum Lipids” (Novo Nordisk A/S, priority 2000, published 2008).
# Legend:
# [1] = test system: male Zucker Diabetic Fatty fa/fa (ZDF) rat; assay: Long-term treatment of male Zucker Diabetic Fatty fa/fa (ZDF) rats, model of Type 2 diabetes; assay type: in vivo; settings: for Free fatty acids / Total cholesterol: mean ± SEM
# Text: The male Zucker Diabetic Fatty fa/fa (ZDF) rat is a model of Type 2 diabetes. The rats are insulin resistant but normoglycemic from birth and they develop diabetes from about week 7 to week 10 of age. During the transitional period, the animals go through a state of impaired glucose tolerance. Although the animals are hyperinsulinemic before diabetes onset and during the early stages of diabetes, they later lose glucose-stimulated insulin secretion and finally become almost completely insulinopenic.
# Animals were between 7 and 8 weeks old when dosing was initiated, and fed glucose levels were not different between the groups before dosing began. […] After 36 days of dosing, an oral glucose tolerance test was performed in the animals after an 11-hour fast. One g/kg of glucose was administered by oral gavage and subsequent measurements of blood glucose and plasma insulin were made.
# In addition to the effects on blood glucose and insulin, we also studied the effects of long-term treatment on lipid parameters. Thus, at the termination of the study, non-fasted plasma measurements of total cholesterol, free fatty acids were performed.
# [2] = test system: Wistar rats subjected to neonatal monosodium glutamate treatment (MSG); assay: Acute and subchronic anorectic effects, model of hypothalamic obesity (MSG rats); assay type: in vivo, rat
# Experimental: Solutions were always made fresh approximately 1 hour prior to use and stored at 4° C. in sterile tubes.
# normal Wistar rats = assay: Acute and subchronic anorectic effects, normal Wistar rats; assay type: in vivo, rat; settings: lowered from 1.58±0.1, 100 μg/kg s.c. twice daily
# [3] = 150 μg/kg s.c. bi-daily, non-fasted plasma at termination
# [4] = group B, 30 μg/kg s.c. bi-daily, non-fasted plasma at termination
# [5] = group C, 150 μg/kg s.c. bi-daily, non-fasted plasma at termination
# [6] = 100 μg/kg s.c. twice daily, normal and MSG rats not distinguished
# [7] = initial effect, normalised within few days of treatment
substance,measurement,setting,value
"Arg^34, Lys^26(N^ε-(γ-Glu(N^α-hexadecanoyl)))-GLP-1(7-37) [GLP1]","free fatty acids, group C compared to group A (vehicle)",[1]; [3],significant reduction
same,"total cholesterol, group C compared to group A (vehicle)",[1]; [3],significant reduction
same,blood glucose state during a normal 24-hour feeding schedule,"[1]; group B, 30 μg/kg s.c. bi-daily, after 10 days of dosing",hyperglycemic
same,Free fatty acids,[1]; [4],0.29 ± 0.04 mM
same,Total cholesterol,[1]; [4],2.9 ± 0.1 mM
same,blood glucose levels during a normal 24-hour feeding schedule vs vehicle- and low-dose-treated animals,"[1]; group C, 150 μg/kg s.c. bi-daily, after 10 days of dosing",significantly lower
same,blood glucose levels during a normal 24-hour feeding schedule,"[1]; group C, 150 μg/kg s.c. bi-daily, after 10 days of dosing, compared to initial measurements",unchanged
same,glycemic level in oral glucose tolerance test vs groups A and B,"[1]; group C, 150 μg/kg s.c. bi-daily, after 36 days of dosing, 11-hour fast, 1 g/kg glucose by oral gavage",significantly lower
same,Free fatty acids,[1]; [5],0.20 ± 0.02 mM
same,Total cholesterol,[1]; [5],2.2 ± 0.1 mM
same,body weight,[2]; [6],reduced
same,food intake,[2]; [6],inhibition
same,diuresis,[2]; [7],increases
same,water intake,[2]; [7],Initial decreases
same,plasma parameters of renal function,[2]; throughout the experiment,remained normal
same,plasma levels of triglycerides,normal Wistar rats,1.21 ± 0.3 mM
